Experimental data from patent publication US20090023794A1, “Use of Sumoylation Inhibitors for the Treatment of Neurodegenerative Disease” (Caritas St. Elizabeth Medical Center of Boston, Inc., priority 2005, published 2009).

How the values were obtained:
[1] = tested on: histone acetylation; assay: Histone acetylation in CHP-212 cells by western blotting; format: cell-based, human; details: data not shown
[2] = tested on: tyrosine hydroxylase expression in CHP-212 cells; assay: Restoration of tyrosine hydroxylase expression by HDAC inhibitors in CHP-212 cells transfected with DJ-1 siRNA (western blot); format: cell-based, human; details: for reversal of tyrosine hydroxylase inhibition caused by DJ-1 inactivation (in words): CHP-212 cells transfected with DJ-1 siRNA/RNAi
Description: Various acetylated histone species from CHP-212 cells transfected with control or DJ-1 RNAi for 4 days were immunoprecipitated with specific antibodies, and amplified with primers specifically for the human tyrosine hydroxylase promoter using semi-quantitative PCR. Reactions were stopped at indicated PCR cycles for gel analysis. Input: 0.5% of input DNA before IP. The inhibition of endogenous tyrosine hydroxylase and DJ-1 by the DJ-1-specific siRNA for the ChIP assays was confirmed by Western blots. […] after the transfection of control (CTR) or DJ-1 RNAi constructs, CHP-212 cells were treated with increasing amount of sodium butyrate for additional 88 hours before harvesting, with 2 changes of fresh medium containing sodium butyrate during the course of the experiment. […] The protein levels of TH, DJ-1 and β-actin were determined by western blotting.
To validate the role of histone acetylation in DJ-1-mediated regulation of the human tyrosine hydroxylase promoter, CHP-212 cells were transfected with control or DJ-1-specific siRNA. ChIP assays were performed with antibodies that specifically recognize acetylated histones, and the human tyrosine hydroxylase promoter sequences were amplified using semi-quantitative PCR. Consistent with the concurrent inhibition of the tyrosine hydroxylase protein expression, DJ-1 inactivation caused a decrease in the amount of tyrosine hydroxylase promoter-associated acetylated histones, indicating transcriptional silencing (FIG. 6A). Since DJ-1 acted as a transcriptional co-activator eventually promoting histone acetylation, it was likely that chemical inhibitors of HDAC would reverse the effects of DJ-1 inactivation. Therefore, CHP-212 cells were pre-transfected with control or DJ-1-specific siRNA, and the cells were treated with increasing amounts of the HDAC inhibitor sodium butyrate. Sodium butyrate restored tyrosine hydroxylase expression (to 88% of the levels in the control at 0.2 mM) even in the presence of DJ-1 siRNA (FIG. 6B). […]

CCCC(=O)[O-].[Na+] [sodium butyrate]
histone acetylation (in words) [1]: increased histone acetylation
tyrosine hydroxylase expression restored, relative to the levels in the control ([2]; 0.2 mM, CHP-212 cells in the presence of DJ-1 siRNA, western blot): 88 % of the levels in the control
reversal of tyrosine hydroxylase inhibition caused by DJ-1 inactivation (in words) [2]: restoration of tyrosine hydroxylase expression

CC(/C=C/C(=O)NO)=C\[C@@H](C)C(=O)c1ccc(N(C)C)cc1 [trichostatin A]
reversal of tyrosine hydroxylase inhibition caused by DJ-1 inactivation (in words) [2]: similarly reversed the tyrosine hydroxylase inhibition
